{
  "source": "patent US12173320B2",
  "about": "“Production of red blood cells and platelets from stem cells” (BOSTON MEDICAL CENTER CORPORATION, priority 2012, dated 2024)",
  "type_in_all_cases": "cell-based, human",
  "key": {"iPSC-derived MEPs": {"system": "iPSC-derived MEPs", "assay": "Growth / expansion of MEP cultures (manual counts, trypan blue exclusion)", "experimental": "Plots were gated first in FSC vs. SSC and then from that population for PI ‘ and PE Hoechst’. […] (B) Representative phase contrast images of MEP population+FICZ. (C) Growth curve of day 15 MEPs+/−[…] FICZ. Cells were counted manually using trypan blue exclusion. Graphical data and the associated statistics are the result of three independent experiments per group.\nHigh passage iPSCs were plated onto matrigel coated 6-well plates in iPSC media conditioned on iMEFs for 24 hours and supplemented with 2 ng/ml Rho Kinase Inhibitor and 20 ng/ml bFGF. After two days, iPSC media was replaced with Mesoderm DO-1 media: RPMI (Invitrogen A1049101) supplemented with 5 ng/mlhBMP-4 (R&D 314-BP-010), 50 ng/ml hVEGF (R&D 293-VE-010), 25 ng/mlhWnt3a (R&D 287-TC-500) and 10% KOSR. At Day 2, Mesoderm DO-1 media was replaced with Mesoderm D2 media: RPMI supplemented with 5 ng/ml hBMP-4, 50 ng/mlhVEGF, 20 ng/ml bFGF and 10% KOSR. Mesoderm D3 media consisted of the following: StemPro 34 (Invitrogen 10639011), 5 ng/ml hBMP-4, 50 ng/mlhVEGF, and 20 ng/ml bFGF. Mesoderm media for days 4 and 5 consisted of: StemPro 34, 15 ng/mlhVEGF, and 5 ng/ml bFGF. Day 6 mesoderm media: 74% IMDM (Invitrogen 12330061), 24% Hams F12 (Mediatech 10-080-CV), 1% B27 supplement (Invitrogen 12587-010), 0.5% N2-supplement (Invitrogen 17502-048), 0.5% BSA (Sigma A3059), 50 ng/ml hVEGF, 100 ng/mlbFGF, 100 ng/ml hSCF (R&D 255-SC-010), 25 ng/ml hFlt3 Ligand (R&D 308-FKN-005). Day 7 media: 74% IMDM, 24% Hams F12, 1% B27 supplement, 0.5% N2-supplement, 0.5% BSA, 50 ng/ml hVEGF, 100 ng/ml bFGF, 100 ng/ml hSCF, 25 ng/ml hFlt3 Ligand, 50 ng/ml hTPO (Genentech G140BT), 10 ng/ml IL-6 (R&D 206-IL-010), 0.5 U/ml hEPOgen and 0.2 uM 6-formylindolo[3,2-b]carbazole (FICZ) (Santa Cruz SC300019). After Day 7, 0.5 ml of Day 7 media was added to the culture daily without aspirating the media from the previous day. All base media mixes included 2 mM L-Glutamine (Invitrogen 25030081), 4×10^-4M Monothioglycerol (Sigma M1753), 100 ug/ml Primocin, and 50 ug/ml Ascorbic Acid. Cells in suspension were collected and assayed at Days 10-13 or split for long-term culture.\n6-formylindolo[3,2-b]carbazole (FICZ), an AHR small molecule agonist, and CH223191, an AHR competitive inhibitor were used for these assays. CH223191 was added to mesoderm cultures at Day 6 at 5 μM (lx) and 2.504 (0.5×). 0.2 μM FICZ was added to cultures at Day 7 and media was added daily. DMSO was used as a vehicle control."}, "AhR": {"system": "AhR", "assay": "Lentiviral AhR reporter (MMTV-DRE dsRed / luciferase) in MEPs", "conditions": "day 30 MEPs, FICZ increased to 0.4 μM"}, "day 30 MEPs": {"system": "day 30 MEPs", "assay": "EDU incorporation proliferation assay", "conditions": "versus untreated cells", "excerpt": "In a subsequent experiment, […] (EDU) incorporation in day 30 MEPs was used to compare proliferation of FICZ-treated MEPS and control untreated MEPs, EDU is a labeling chemical that intercolates into the DNA of a cell and allows for the explicit tracking of proliferation."}},
  "data": [
    {"smiles": "O=Cc1c2c(cc3c1=Nc1ccccc1-3)=Nc1ccccc1-2", "note": "[FICZ, 6-formylindolo[3,2-b]carbazole]", "values": [
      {"measurement": "expansion of MEPs (cell number)", "setting": "iPSC-derived MEPs; after addition of FICZ to cultures", "value": "from a few thousand to a billion cells in a few weeks"},
      {"measurement": "growth of MEPs", "setting": "iPSC-derived MEPs; day 15 MEPs +/-0.2 μm FICZ, 2 week growth period, versus untreated", "value": "logarithmic expansion"},
      {"measurement": "time cells could be cultured", "setting": "iPSC-derived MEPs; iPSC-derived MEPs under AhR agonism", "value": "> 120", "unit": "days"},
      {"measurement": "DsRed reporter expression", "setting": "AhR", "value": "significant increase"},
      {"measurement": "proliferation by EDU incorporation", "setting": "day 30 MEPs", "value": "far more proliferative than untreated cells"}
    ]}
  ]
}
